# Reference: publication PMC11011441, “Bioactive Compounds and Potential Health Benefits through Cosmetic Applications of Cherry Stem Extract” (International Journal of Molecular Sciences, 2024)
# Columns and labels:
# Assay type in all cases: biochemical
# elastase = test: Elastase inhibition (MeOSuc-Ala-Ala-Pro-Val-pNa hydrolysis); details: at 51.26 mg/L
# Method: (§1) The potential of cherry stem extract to inhibit hyaluronidase (HYALase), collagenase, elastase, tyrosinase, and xanthine oxidase enzymes was evaluated. The methods were carried out following previous studies.
# The assessment of elastase enzyme inhibition was based on the release of p-nitroaniline resulting from the hydrolysis of the substrate MeOSuc-Ala-Ala-Pro-Val-pNa by elastase. The quantity of p-nitroaniline was gauged through absorbance readings at 405 nm. Elastatinal (ELA) was employed as the control for elastase inhibition. The control result was stated as % inhibition.
# (§2) Results for cherry stem extract were presented as IC50 values at various extract concentrations, except for the enzyme tyrosinase, which was presented as IC55 value at various extract concentrations. All evaluations were performed in triplicate.
# [1] = Superoxide radical scavenging (reduction of NBT to diformazan)
# Method: (§3) The ability of cherry stem extract to inhibit superoxide radical (O2^·−), hypochlorous acid (HOCl), and nitric oxide (NO^·) was evaluated. […] The scavenging properties of cherry stem extract and positive controls against the O2^·− radical were assessed colorimetrically by reduction of NBT to diformazan purple. The ability of the cherry stem extract to inhibit HOCl by inducing the oxidation of DHR to rhodamine was determined. The scavenging activity of cherry stem extract against NO^· was determined by oxidation of DAF-2. To assess the inhibition of O2^·−, NO^·, and HOCl radicals, epicatechin (EPI) and gallic acid (GA) were employed as reference controls. All results were expressed as IC50 value using different concentrations of cherry stem extract and all measurements were performed in triplicate.
# [2] = Nitric oxide scavenging (oxidation of DAF-2); details: radical scavenging
# Method: as §3
# [3] = Hypochlorous acid scavenging (oxidation of DHR to rhodamine); details: radical scavenging
# Method: as §3
# hyaluronidase (HYALase) = test: HYALase inhibition assay (turbidity at 600 nm)
# Method: The potential of cherry stem extract to inhibit hyaluronidase ([…]), collagenase, elastase, tyrosinase, and xanthine oxidase enzymes was evaluated. The methods were carried out following previous studies. The […] inhibition assay involves quantifying the reduction in transmitted light intensity caused by particles generated from the breakdown of hyaluronic acid (HYAL) by the […] enzyme. Absorbance readings were taken at 600 nm. EPI and GA were employed as controls to evaluate […] inhibition. The outcomes from the EPI and GA controls were reported as IC20 values. Results for cherry stem extract were presented as IC50 values at various extract concentrations, except for the enzyme tyrosinase, which was presented as IC55 value at various extract concentrations. All evaluations were performed in triplicate.
# tyrosinase = test: Tyrosinase inhibition (Colorimetric Tyrosinase Inhibitor Detection Kit); details: at 21.3 mg/L
# Method: The potential of cherry stem extract to inhibit hyaluronidase ([…]), collagenase, elastase, tyrosinase, and xanthine oxidase enzymes was evaluated. The methods were carried out following previous studies. The evaluation of tyrosinase inhibition was conducted using a “Colorimetric Tyrosinase Inhibitor Detection Kit” sourced from Sigma-Aldrich, USA. Inhibition control was established with kojic acid (KA). The control outcome was represented as % inhibition. Results for cherry stem extract were presented as IC50 values at various extract concentrations, except for the enzyme tyrosinase, which was presented as IC55 value at various extract concentrations. All evaluations were performed in triplicate.
# collagenase = test: Collagenase inhibition (FALGPA degradation)
# Method: as §1
# The evaluation of collagenase enzyme activity is based on the colorimetric analysis of the degradation of the FALGPA substrate by the enzyme. The absorbance measurements were taken at 335 nm. Phenanthroline (PHE) was used as the control to assess collagenase inhibition, and the IC50 value was quantified as the control.
# as §2
HYALase inhibitory concentration at 20% (IC20) (hyaluronidase (HYALase)),Compound,O2^·− inhibitory concentration at 50% [1] [mg/L],NO^· inhibitory concentration at 50% [2] [mg/L],HOCl inhibitory concentration at 50% [3] [mg/L],also measured
–,"CC(C)C[C@H](NC(=O)N[C@H](C(=O)N[C@@H](CCC(N)=O)C(=O)N[C@@H](C)C=O)[C@@H]1CCNC(=N)N1)C(=O)O [ELA, elastatinal]",–,–,–,Elastase % inhibition (elastase): 53 ± 5 ^4%
167 ± 6 ^5 mg/L,"Oc1cc(O)c2c(c1)O[C@H](c1ccc(O)c(O)c1)[C@H](O)C2 [EPI, epicatechin]",70 ± 5,0.87 ± 0.02,0.18 ± 0.01,–
102 ± 4 ^5 mg/L,"O=C(O)c1cc(O)c(O)c(O)c1 [GA, gallic acid]",50 ± 3,1.4 ± 0.3,3.8 ± 0.3,–
–,"O=c1cc(CO)occ1O [KA, Kojic acid]",–,–,–,Tyrosinase % inhibition (tyrosinase): 49 ± 6 ^3%
–,"c1cnc2c(c1)ccc1cccnc12 [PHE, 1, 10-phenanthroline]",–,–,–,Collagenase inhibitory concentration at 50% (collagenase): 83 ± 2 mg/L
